PubChem BioAssay (NCI)
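A five-concentration, 48-hour dose response in 96-well plates underlies each endpoint, interpolated linearly between surrounding concentrations. TGI denotes the concentration required for complete inhibition of growth.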

Key:
Assay in all cases: DTP human tumour cell line panel, 48 h
[1] = tested on: SF-268 CNS
[2] = tested on: ACHN renal
[3] = tested on: HCT-116 colon
[4] = tested on: 786-0 renal
[5] = tested on: SNB-75 CNS
[6] = tested on: SK-MEL-2 melanoma
[7] = tested on: K-562 leukemia
[8] = tested on: SK-MEL-5 melanoma
[9] = tested on: IGROV1 ovarian
[10] = tested on: MCF7 breast
[11] = tested on: HCC-2998 colon
[12] = tested on: SF-539 CNS
[13] = tested on: MOLT-4 leukemia
[14] = tested on: KM12 colon
[15] = tested on: HS 578T breast
[16] = tested on: NCI-H226 lung
[17] = tested on: BT-549 breast
[18] = tested on: CAKI-1 renal
[19] = tested on: HL-60(TB) leukemia
[20] = tested on: OVCAR-5 ovarian
[21] = tested on: NCI-H23 lung
[22] = tested on: OVCAR-3 ovarian
[23] = tested on: RXF 393 renal
[24] = tested on: SNB-19 CNS
[25] = tested on: COLO 205 colon
[26] = tested on: SK-MEL-28 melanoma
[27] = tested on: HOP-62 NSCLC
[28] = tested on: U251 CNS
[29] = tested on: MDA-MB-231 breast
[30] = tested on: LOX IMVI melanoma
[31] = tested on: DU-145 prostate
[32] = tested on: NCI-H522 lung
[33] = tested on: PC-3 prostate
[34] = tested on: OVCAR-8 ovarian
[35] = tested on: RPMI-8226 leukemia
[36] = tested on: A498 renal
[37] = tested on: CCRF-CEM leukemia
[38] = tested on: NCI/ADR-RES ovarian
[39] = tested on: TK-10 renal
[40] = tested on: HOP-92 NSCLC
[41] = tested on: UACC-62 melanoma
[42] = tested on: NCI-H460 lung
[43] = tested on: MDA-N
[44] = tested on: UO-31 renal
[45] = tested on: HT29 colon
[46] = tested on: EKVX NSCLC
[47] = tested on: T-47D breast
[48] = tested on: UACC-257 melanoma
[49] = tested on: SK-OV-3 ovarian
[50] = tested on: MDA-MB-435
[51] = tested on: OVCAR-4 ovarian
[52] = tested on: SW-620 colon
[53] = tested on: M14 melanoma
[54] = tested on: MALME-3M melanoma
[55] = tested on: SF-295 CNS
[56] = tested on: SR leukemia
[57] = tested on: SN12C renal
[58] = tested on: A549 NSCLC
[59] = tested on: HCT-15 colon

Compound: CC(=O)N1C(=O)/C(=C\C(=O)c2ccc(Cl)cc2)c2ccccc21
- TGI [1]: 40.5 µM
- TGI [2]: 23.6 µM
- TGI [3]: 32.3 µM
- TGI [4]: 15.9 µM
- TGI [5]: 35 µM
- TGI [6]: 38.9 µM
- TGI [7]: > 100 µM
- TGI [8]: 39.8 µM
- TGI [9]: 33.2 µM
- TGI [10]: > 76.2 µM
- TGI [11]: 31.5 µM
- TGI [12]: 37.2 µM
- TGI [13]: 9.09 µM
- TGI [14]: 35.3 µM
- TGI [15]: > 57.3 µM
- TGI [16]: 44.5 µM
- TGI [17]: 18.4 µM
- TGI [18]: 27.6 µM
- TGI [19]: 5.24 µM
- TGI [20]: 48.4 µM
- TGI [21]: 31.7 µM
- TGI [22]: 30.6 µM
- TGI [23]: 32.6 µM
- TGI [24]: > 57.2 µM
- TGI [25]: 26.7 µM
- TGI [26]: 35.8 µM
- TGI [27]: 41.2 µM
- TGI [28]: 37.2 µM
- TGI [29]: 30.3 µM
- TGI [30]: 5.9 µM
- TGI [31]: 33.7 µM
- TGI [32]: 26.9 µM
- TGI [33]: 19.6 µM
- TGI [34]: 33.7 µM
- TGI [35]: 97.1 µM
- TGI [36]: 69.3 µM
- TGI [37]: 7.58 µM
- TGI [38]: 53.5 µM
- TGI [39]: 30.5 µM
- TGI [40]: 35 µM
- TGI [41]: 28.6 µM
- TGI [42]: 32.5 µM
- TGI [43]: 30.9 µM
- TGI [44]: 29.6 µM
- TGI [45]: 20.7 µM
- TGI [46]: 36.2 µM
- TGI [47]: 47.6 µM
- TGI [48]: 30.7 µM
- TGI [49]: 59.9 µM
- TGI [50]: 36.5 µM
- TGI [51]: 35.9 µM
- TGI [52]: 61.1 µM
- TGI [53]: 38.8 µM
- TGI [54]: 32.6 µM
- TGI [55]: 52.7 µM
- TGI [56]: 6.51 µM
- TGI [57]: 32.1 µM
- TGI [58]: 22.9 µM
- TGI [59]: 23.4 µM

Compound: O=C1CCc2c(sc3ncnc(Nc4cccc(Br)c4)c23)C1
- TGI [1]: 15.2 µM
- TGI [2]: 8.04 µM
- TGI [3]: 11.7 µM
- TGI [4]: 19 µM
- TGI [5]: 12.5 µM
- TGI [6]: 23.8 µM
- TGI [7]: > 22.7 µM
- TGI [8]: 3.67 µM
- TGI [9]: 12.6 µM
- TGI [10]: 22.3 µM
- TGI [11]: 15 µM
- TGI [12]: 13.2 µM
- TGI [13]: > 27 µM
- TGI [14]: 12.3 µM
- TGI [15]: > 79.8 µM
- TGI [16]: 14.8 µM
- TGI [17]: 13.9 µM
- TGI [18]: 12.5 µM
- TGI [19]: 7.56 µM
- TGI [20]: 23.4 µM
- TGI [21]: 8.24 µM
- TGI [22]: 8.31 µM
- TGI [23]: 7.51 µM
- TGI [24]: 19.2 µM
- TGI [25]: 20.8 µM
- TGI [26]: 52.6 µM
- TGI [27]: 18.7 µM
- TGI [28]: 9.02 µM
- TGI [29]: 11.5 µM
- TGI [30]: 12.9 µM
- TGI [31]: 17.3 µM
- TGI [32]: 6.17 µM
- TGI [33]: 10.3 µM
- TGI [34]: 21.3 µM
- TGI [35]: > 20.3 µM
- TGI [36]: 31.4 µM
- TGI [37]: 4.38 µM
- TGI [38]: > 26.7 µM
- TGI [39]: 14.5 µM
- TGI [40]: 9.21 µM
- TGI [41]: 11.1 µM
- TGI [42]: 12.9 µM
- TGI [43]: 7.69 µM
- TGI [44]: 5.23 µM
- TGI [45]: 27 µM
- TGI [46]: 12.4 µM
- TGI [47]: 6.17 µM
- TGI [48]: 11.6 µM
- TGI [49]: 20.1 µM
- TGI [50]: 3.82 µM
- TGI [51]: 8.63 µM
- TGI [52]: 11.6 µM
- TGI [53]: 13.9 µM
- TGI [54]: 4.85 µM
- TGI [55]: 15.3 µM
- TGI [56]: 7.82 µM
- TGI [57]: 12.7 µM
- TGI [58]: 24.5 µM
- TGI [59]: 12.4 µM
